From US20240287047A1, “PESTICIDALLY ACTIVE DIAZINE-AMIDE COMPOUNDS” (SYNGENTA CROP PROTECTION AG, priority 2021, published 2024)

Tests used:
Assay type in all cases: in vivo
Spodoptera littoralis = assay: Example B5: Spodoptera littoralis (Egyptian cotton leaf worm), cotton leaf discs, L1 larvae; conditions: foliar, 72 h, application rate of 200 ppm, 3 days after infestation, read-out: control in at least one of the three categories (mortality, anti-feedant effect, or growth inhibition)
Description: Cotton leaf discs were placed onto agar in 24-well microtiter plates and sprayed with aqueous test solutions prepared from 10,000 ppm DMSO stock solutions. After drying the leaf discs were infested with five L1 larvae. The samples were assessed for mortality, anti-feeding effect, and growth inhibition in comparison to untreated samples 3 days after infestation. Control of Spodoptera littoralis by a test sample is given when at least one of the categories mortality, anti-feedant effect, and growth inhibition is higher than the untreated sample.

Chilo suppressalis = assay: Example B1: Chilo suppressalis (striped rice stemborer), artificial diet, L2 larvae; conditions: 144 h, application rate of 200 ppm, 6 days after infestation, read-out: control in at least one of the three categories (mortality, anti-feedant effect, or growth inhibition)
Description: 24-well microtiter plates with artificial diet were treated with aqueous test solutions prepared from 10,000 ppm DMSO stock solutions by pipetting. After drying, the plates were infested with L2 larvae (6-8 per well). The samples were assessed for mortality, anti-feeding effect, and growth inhibition in comparison to untreated samples 6 days after infestation. Control of Chilo suppressalis by a test sample is given when at least one of the categories mortality, anti-feedant effect, and growth inhibition is higher than the untreated sample.

Diabrotica balteata = assay: Example B2: Diabrotica balteata (corn root worm), maize sprouts, L2 larvae; conditions: for percent control (mortality or growth inhibition) at 200 ppm: Diabrotica balteata, 96 h, application rate of 200 ppm, 4 days after infestation, read-out: control in at least one of the two categories (mortality or growth inhibition)
Description: Maize sprouts placed onto an agar layer in 24-well microtiter plates were treated with aqueous test solutions prepared from 10,000 ppm DMSO stock solutions by spraying. After drying, the plates were infested with L2 larvae (6 to 10 per well). The samples were assessed for mortality and growth inhibition in comparison to untreated samples 4 days after infestation.

Plutella xylostella = assay: Example B4: Plutella xylostella (diamond back moth), artificial diet, eggs; conditions: Plutella xylostella, 192 h; application rate of 200 ppm; 8 days after infestation; read-out: control in at least one of the two categories (mortality or growth inhibition)
Description: 24-well microtiter plates with artificial diet were treated with aqueous test solutions prepared from 10′000 ppm DMSO stock solutions by pipetting. After drying, Plutella eggs were pipetted through a plastic stencil onto a gel blotting paper and the plate was closed with it. The samples were assessed for mortality and growth inhibition in comparison to untreated samples 8 days after infestation.

Myzus persicae = assay: Example B3: Myzus persicae (green peach aphid) intrinsic activity; conditions: 120 h, test rate of 12 ppm, 5 days after infestation
Description: Test compounds prepared from 10′000 ppm DMSO stock solutions were applied by pipette into 24-well microtiter plates and mixed with sucrose solution. The plates were closed with a stretched Parafilm. A plastic stencil with 24 holes was placed onto the plate and infested pea seedlings were placed directly on the Parafilm. The infested plate was closed with a gel blotting paper and another plastic stencil and then turned upside down. The samples were assessed for mortality 5 days after infestation.

Structure (SMILES)	percent control (mortality, anti-feedant effect or growth inhibition) at 200 ppm (Spodoptera littoralis)	percent control (mortality, anti-feedant effect or growth inhibition) at 200 ppm (Chilo suppressalis)	percent control (mortality or growth inhibition) at 200 ppm (Diabrotica balteata)	percent control (mortality or growth inhibition) at 200 ppm (Plutella xylostella)	mortality at 12 ppm (Myzus persicae)	mortality at 50 ppm (Diabrotica balteata; Concentration 50 ppm, Diabrotica balteata (Example B32))
CC(NC(=O)c1cc(OC(F)F)cc(C(F)(F)F)c1)c1nccnc1-c1cnccn1 (stereo not drawn) [Compound P20]	≥ 80%	≥ 80%	≥ 80%	≥ 80%	≥ 80%	
CC(NC(=O)c1cc(OC(F)F)cc(C2(C#N)CC2)c1)c1nccnc1-c1cnccn1 (stereo not drawn) [Compound P32, 3-(1-cyanocyclopropyl)-5-(difluoromethoxy)-N-[1-(3-pyrazin-2-ylpyrazin-2-yl)ethyl]benzamide]	≥ 80%	≥ 80%			≥ 80%	
C[C@H](NC(=O)c1cc(C(F)(F)F)cc(C(C)(C)C#N)c1)c1nccnc1-c1cnccn1 [Compound E7]	≥ 80%	≥ 80%	≥ 80%	≥ 80%	≥ 80%	
CC(NC(=O)c1cc(OC(F)F)cc(OC(F)F)c1)c1nccnc1-c1cnccn1 (stereo not drawn) [Compound P2, 3,5-bis(difluoromethoxy)-N-[1-(3-pyrazin-2-ylpyrazin-2-yl)ethyl]benzamide]	≥ 80%	≥ 80%	≥ 80%	≥ 80%	≥ 80%	
CC(NC(=O)c1cc(C(F)(F)F)cc(S(C)(=O)=O)c1)c1nccnc1-c1cnccn1 (stereo not drawn) [Compound P16, 3-methylsulfonyl-N-[1-(3-pyrazin-2-ylpyrazin-2-yl)ethyl]-5-(trifluoromethyl)benzamide]	≥ 80%	≥ 80%	≥ 80%	≥ 80%	≥ 80%	
CC(NC(=O)c1cc(Br)nc(C2(C#N)CC2)c1)c1nccnc1-c1cnccn1 (stereo not drawn) [Compound P3, 2-bromo-6-(1-cyanocyclopropyl)-N-[1-(3-pyrazin-2-ylpyrazin-2-yl)ethyl]pyridine-4-carboxamide]	≥ 80%	≥ 80%	≥ 80%	≥ 80%		
CC(NC(=O)c1cc(OC(F)(F)F)cc(C2(C#N)CC2)c1)c1nccnc1-c1cnccn1 (stereo not drawn) [Compound P31]	≥ 80%	≥ 80%	≥ 80%	≥ 80%	≥ 80%	
CC(NC(=O)c1cc(C(F)F)cc(C(F)(F)F)c1)c1nccnc1-c1cnccn1 (stereo not drawn) [Compound P10, 3-(difluoromethyl)-N-[1-(3-pyrazin-2-ylpyrazin-2-yl)ethyl]-5-(trifluoromethyl)benzamide]	≥ 80%	≥ 80%	≥ 80%	≥ 80%		100%
CC(NC(=O)c1cc(C(F)(F)F)cc(C(C)(C)C#N)c1)c1nccnc1-c1cnccn1 (stereo not drawn) [Compound P5, 3-(1-cyano-1-methyl-ethyl)-N-[1-(3-pyrazin-2-ylpyrazin-2-yl)ethyl]-5-(trifluoromethyl)benzamide]	≥ 80%	≥ 80%	≥ 80%	≥ 80%		
C[C@H](NC(=O)c1cc(I)cc(C(F)(F)F)c1)c1nccnc1-c1cnccn1 [Compound E4, 3-iodo-N-[(1S)-1-(3-pyrazin-2-ylpyrazin-2-yl)ethyl]-5-(trifluoromethyl)benzamide]	≥ 80%	≥ 80%	≥ 80%	≥ 80%		
C[C@@H](c1nccnc1-c1cnccn1)N(C)C(=O)c1cc(C(F)(F)F)cc(C(C)(C)C#N)c1 [Compound E12, 3-(1-cyano-1-methyl-ethyl)-N-methyl-N-[(1S)-1-(3-pyrazin-2-ylpyrazin-2-yl)ethyl]-5-(trifluoromethyl)benzamide]	≥ 80%		≥ 80%		≥ 80%	
CC(NC(=O)c1cc(C(F)(F)F)nc(C2(C#N)CC2)c1)c1nccnc1-c1cnccn1 (stereo not drawn) [Compound P4]	≥ 80%	≥ 80%	≥ 80%	≥ 80%		
CC(NC(=O)c1cc(Cl)cc(S(C)(=O)=O)c1)c1nccnc1-c1cnccn1 (stereo not drawn) [Compound P26, 3-chloro-5-methylsulfonyl-N-[1-(3-pyrazin-2-ylpyrazin-2-yl)ethyl]benzamide]	≥ 80%	≥ 80%	≥ 80%	≥ 80%	≥ 80%	
CC(NC(=O)c1cc(C(F)(F)F)cc(C(F)(F)F)c1)c1nccnc1-c1cnccn1 (stereo not drawn) [Compound P1, N-[1-(3-pyrazin-2-ylpyrazin-2-yl)ethyl]-3,5-bis (trifluoromethyl)benzamide]	≥ 80%	≥ 80%	≥ 80%	≥ 80%		
CC(NC(=O)c1cc(C2CC2)nc(C(F)(F)F)c1)c1nccnc1-c1cnccn1 (stereo not drawn) [Compound P11, 2-cyclopropyl-N-[1-(3-pyrazin-2-ylpyrazin-2-yl)ethyl]-6-(trifluoromethyl)pyridine-4-carboxamide]	≥ 80%	≥ 80%	≥ 80%	≥ 80%		
CC(NC(=O)c1cc(C(F)(F)F)cc(C(C)(C)C#N)c1)c1nccnc1-c1cnc(Cl)cn1 (stereo not drawn) [Compound P37, N-[1-[3-(5-chloropyrazin-2-yl)pyrazin-2-yl]ethyl]-3-(1-cyano-1-methyl-ethyl)-5-(trifluoromethyl)benzamide]	≥ 80%	≥ 80%	≥ 80%	≥ 80%		
CC(NC(=O)c1cc(Cl)nc(C2(C#N)CC2)c1)c1nccnc1-c1cnccn1 (stereo not drawn) [Compound P27, 2-chloro-6-(1-cyanocyclopropyl)-N-[1-(3-pyrazin-2-ylpyrazin-2-yl)ethyl]pyridine-4-carboxamide]	≥ 80%	≥ 80%	≥ 80%	≥ 80%		
CC(NC(=O)c1cc(C(F)(F)F)cc(S(C)(=O)=O)c1)c1nccnc1-c1cnc(Cl)cn1 (stereo not drawn) [Compound P35, N-[1-[3-(5-chloropyrazin-2-yl)pyrazin-2-yl]ethyl]-3-methylsulfonyl-5-(trifluoromethyl)benzamide]	≥ 80%	≥ 80%	≥ 80%	≥ 80%		
C[C@H](NC(=O)c1cc(C(F)F)cc(C(F)(F)F)c1)c1nccnc1-c1cnccn1 [Compound E8, 3-(difluoromethyl)-N-[(1S)-1-(3-pyrazin-2-ylpyrazin-2-yl)ethyl]-5-(trifluoromethyl)benzamide]	≥ 80%	≥ 80%	≥ 80%	≥ 80%		
